Measurements published in article PMC7725785, “TRIB3 promotes MYC-associated lymphoma development through suppression of UBE3B-mediated MYC degradation” (Nature Communications, 2020).

Legend:
[1] = system: TRIB3 with AKT, p62, COP1, and PML; assay: Co-IP of TRIB3/AKT, TRIB3/p62, TRIB3/COP1, TRIB3/PML (off-target); assay type: cell-based; details: result in words
Procedure: Co-IP experiments were performed as described previously. Briefly, cells were collected and lysed for 30 min on ice. Soluble lysates were incubated with the indicated antibodies at 4 °C overnight, followed by incubation with Protein A/G Plus-Agarose (Santa Cruz Biotechnology, TX, USA) at 4 °C for 2 h. Soluble lysates were incubated with the indicated Anti-Myc magnetic beads (Bimake.com, B26302), Anti-Flag Affinity Gel (Bimake.com, B23102) or Anti-HA Affinity Gel (Bimake.com, B23302) at 4 °C overnight. Immunocomplexes were separated from the beads and then boiled for 10 min. The precipitated proteins were subjected to SDS-PAGE and blotted with specific antibodies. For immunoblotting assays, proteins were extracted from cells, spleens, or lymphoma tissues using RIPA buffer (Cell Signaling Technology, MA, USA). A BCA Protein Assay Kit was used to determine protein concentrations. Protein extracts were separated by SDS-PAGE, transferred onto PVDF membranes, and subjected to immunoblot analysis. Western blot images were captured by a Tanon 5200 chemiluminescent imaging system (Tanon, Shanghai, […]). Human lymphoma and benign LN paraffin tissue microarrays were purchased from US Biomax (LM482a).

MYC and MAX = assay: Duolink PLA of MYC and MAX colocalization in Raji cells; assay type: cell-based, human; details: PCM4-treated Raji cells, result in words
Procedure: A total of 1 × 10^6 cells were seeded overnight in a six-well plate. The next day, cells were collected, fixed in 4% paraformaldehyde solution, permeabilized with 0.5% Triton-X100, blocked with Duolink® Blocking Solution, and probed with antibodies directed against MYC (R&D, NB600-302, 1:100), TRIB3 (Novus, H00057761-M03, 1:100), UBE3B (Invitrogen, PA5-59390, 1:100), and MAX (Cell Signaling Technology, #4739, 1:100). The cells were then treated with the Duolink In Situ Red Starter Mouse/Rabbit kit (Sigma Aldrich, DUO92101-1KT) according to the manufacturer’s instructions. Images were captured with an OLYMPUS confocal microscope.

RNAPII = assay: ChIP-seq of RNAPII occupancy in Raji cells; assay type: cell-based, human; details: ChIP-seq with spike-in, result in words
Procedure: ChIP assays were performed according to the manufacturer’s protocol using a SimpleChIP® Plus Sonication Chromatin IP Kit (Cell Signaling Technology, Danvers, MA, USA, (#56383). Briefly, cells were fixated with 1% formaldehyde (Sigma Aldrich, F8775) for 8 min, incubated with glycine (50 mM final) for 10 min and washed three times with PBS. After cell lysis and chromatin extraction, chromatin was sonicated to 100–500 bp using a BioRuptor sonicator (Diagenode), followed by centrifugation at 16,000×g for 10 min at 4 °C. To control for experimental variation, our spike-in data were normalized to a spike-in control consisting of a small amount of chromatin from another species. Briefly, Baf3 cell lysates were sonicated exactly as described above and added at a 1:100 ratio of Raji cells to lysates. […] The Qubit® 3.0 A fluorometer was used for quantitation of the ChIP library. […]
The ChIP libraries were sequenced on Illumina HiSeq platform in 150 bp paired-end reads. After quality control, the clean reads were aligned to the human reference genome (Homo sapiens. GRCh38.87v2) with Bowtie v2.1.0. Unambiguously mapped reads were retained for subsequent generation of binding profiles, heatmaps and calling of peaks. […] Mapped reads were visualized using the Integrative Genomics Viewer (IGV). We next used the murine spike-in to quantitatively normalize different samples. […]

[2] = system: murine Myc^Eμ lymphoma cells in NSG mice; assay: Limiting dilution transplantation of BCL cells into NSG mice (survival of secondary recipients); assay type: in vivo, mouse; details: NSG mice injected i.p. with lymphoma cells from PCM4 (2 mg/kg) group versus PCON group, 70 days; result in words
Description: To evaluate the survival rate of secondary recipients, these mice were monitored for 70 days. For the evaluation of IHC staining and protein expression, three mice of each group were killed at the end of treatment, and the thymuses, spleens and LNs were collected for pathology detection, Co-IP, and western blot assays.

DLBCL^T64 PDX = assay: PDX model tumor growth and weight, DLBCL T64; assay type: in vivo, human; details: result in words
Procedure: Four 5-week-old male NSG mice were implanted subcutaneously with 200 μl of a 1:1 mixture of Matrigel® Basement Membrane Matrix High Concentration (Corning, 354230) and minced fresh tumor fragments resected from lymphoma patients. Approximately 3–4 weeks following implantation, the first-generation mice (G1) were killed, and tumor masses were isolated. The tumor cells were tested for human CD19 (BCL) or CD3 expression (T cell lymphoma), and the remaining tumor mass was cut into 3-mm^3 sections and passaged into 4–5 NSG mice as the second generation (G2). After stable passage of the third generation (G3), the tumor mass of the fourth generation (G4) was equally cut into 3-mm^3 pieces and then passaged subcutaneously into 30–50 NSG mice (100 μl of a 1:2 mixture of Matrigel and tumor tissue) for in vivo treatment (6–8 mice per group, dependent on the experimental drug treatment). During and after treatment with the vehicle control or the indicated agent, tumor burden was evaluated by measuring the tumor volume to determine the therapeutic efficacy in the PDX models. […]
To evaluate the survival rate, these mice were monitored for 8 months (Myc^Eμ mice). […] During the indicated treatments, tumor burden was evaluated by measuring the tumor volume to determine the therapeutic efficacy in the PDX models.

“HLYVSPWGGKRREQLKHKLEQLR [PCM4, fused peptide generated by linking CM4 to a cell-penetrating peptide]” was tested, and the “off-target: interactions of TRIB3 with AKT, p62, COP1, and PML” value [1] was “did not disturb the interactions of TRIB3 with these proteins”, the “foci of MAX-MYC colocalization” value (MYC and MAX) was “reduced foci of MAX-MYC colocalization” and the “association of RNAPII with promoters” value (RNAPII) was “globally reduced the association of RNAPII with promoters”. For the same sequence, the “survival rate of secondary recipients” value [2] was “better survival rate”, the “growth and weights of tumors, combination of PCM4 and DOX” value (DLBCL^T64 PDX; PDX T64 (high TRIB3 and MYC expression), PCM4 5 mg/kg and DOX 2 mg/kg) was “further decreased the growth and weights of tumors” and the “tumor growth of PDX” value (DLBCL^T64 PDX; PDX T64, NSG mice, PCM4 5 mg/kg i.v. three times a week) was “inhibited the tumor growth”.
